Test results published in ChEMBL document CHEMBL5030545, “Discovery of clinical candidate Sivopixant (S-600918): Lead optimization of dioxotriazine derivatives as selective P2X3 receptor antagonists” (Bioorg Med Chem Lett, 2021).

Assays:
Rattus norvegicus = assay: Analgesic activity in rat model of partial sciatic nerve ligation-induced neuropathic pain assessed as reversal of allodynia at 3 mg/kg, po measured after 3 hrs relative to control; format: functional
[1] = Oral bioavailability in rat at 1 mg/kg administered as cassette dose; format: ADME, organism-based; details: in vivo
[2] = Protein binding in rat plasma assessed as unbound fraction at 1 mg/kg administered as cassette dose; format: ADME, organism-based
[3] = Free plasma concentration in rat plasma at 1 mg/kg administered as cassette dose; format: ADME, organism-based; details: in vivo
[4] = Ratio of plasma concentration in rat measured after 3 hrs to IC50 of P2X3 (unknown origin); format: ADME; details: in vivo
[5] = Ratio of free plasma concentration in rat measured after 3 hrs to IC50 of P2X3 (unknown origin); format: ADME
P2X purinoceptor 3 = target: T1, P2X purinoceptor 3 (Homo sapiens, UniProt P56373); assay: Antagonist activity at P2X3 receptor (unknown origin)
T1 sequence (P56373 whole entry): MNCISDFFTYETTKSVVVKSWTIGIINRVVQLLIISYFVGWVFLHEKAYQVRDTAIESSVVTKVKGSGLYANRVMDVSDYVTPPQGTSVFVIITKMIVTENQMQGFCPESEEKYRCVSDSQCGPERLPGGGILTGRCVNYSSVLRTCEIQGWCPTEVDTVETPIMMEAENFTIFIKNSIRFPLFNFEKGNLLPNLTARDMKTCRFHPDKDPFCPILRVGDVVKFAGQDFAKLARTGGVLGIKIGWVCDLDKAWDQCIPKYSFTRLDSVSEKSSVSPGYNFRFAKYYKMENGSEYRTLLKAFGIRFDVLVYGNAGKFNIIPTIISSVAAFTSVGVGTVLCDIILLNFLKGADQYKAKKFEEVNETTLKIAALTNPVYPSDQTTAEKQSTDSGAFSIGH

Row | SMILES | Activity (Rattus norvegicus) [%] | bioavailability [1] [%] | fraction unbound [2] | Cp(f) [3] [µM] | Ratio [4] | Ratio [5] | IC50 (P2X purinoceptor 3) [nM]
1 | Cc1ccc(Cn2c(=O)n(C[C@H](C)C(=O)O)c(=O)[nH]/c2=N\c2ccc(OC(C)C)c(Cl)c2)cc1 | 3 | 73.1 | 0.014 | 0.692 | 98.9 | 1.38 | –
2 | Cc1cc(/N=c2\[nH]c(=O)n(C[C@H](C)C(=O)O)c(=O)n2Cc2ccc(Cl)cc2)ccc1OC(C)C | 13 | 102 | 0.02 | 0.924 | 57.8 | 1.16 | –
3 | Cc1ccc(Cn2c(=O)n(CCCC(=O)O)c(=O)[nH]/c2=N\c2ccc(OC(C)C)c(Cl)c2)cc1 | 20 | 108 | 0.002 | 3.655 | 294.8 | 0.59 | –
4 | CC(C)Oc1ccc(/N=c2\[nH]c(=O)n(C[C@H](C)C(=O)O)c(=O)n2Cc2ccc(Cl)cc2)cc1Cl | 26 | 82.4 | 0.003 | 1.537 | 171.8 | 0.52 | –
5 | CC(C)Oc1ccc(/N=c2\[nH]c(=O)n(C[C@H](C)C(=O)O)c(=O)n2Cc2ccc(Cl)cc2)cc1 | 2 | 88.8 | 0.068 | 0.827 | 42.8 | 2.91 | –
6 | CC(C)Oc1ccc(Nc2nc(=O)n(CCC(=O)O)c(=O)n2Cc2ccc(Cl)cc2)cc1Cl | 6 | 71.2 | 0.003 | 1.267 | – | – | –
7 | CC(C)Oc1ccc(/N=c2\[nH]c(=O)n(C[C@H](C)C(=O)O)c(=O)n2Cc2ccc(Cl)cc2)cc1F | 23 | 96 | 0.009 | 1.126 | 145.2 | 1.31 | 7.8
8 | CC(C)Oc1ccc(Nc2nc(=O)n(CCCO)c(=O)n2Cc2ccc(Cl)cc2)cc1Cl | – | 36.2 | 0.003 | 0.711 | 103.5 | 0.31 | 6.9
9 | C[C@@H](Cn1c(=O)[nH]/c(=N\c2ccc(Oc3cccnn3)cc2)n(Cc2ccc(Cl)cc2)c1=O)C(=O)O | – | 30.2 | 0.014 | 0.064 | 8.3 | 0.12 | 7.7
10 | CC(C)Oc1ccc(Nc2nc(=O)n(CC(CO)CO)c(=O)n2Cc2ccc(Cl)cc2)cc1Cl | – | 54.8 | 0.003 | 0.597 | 89.2 | 0.27 | 6.7
